# ± gives the expanded uncertainty stated by the source.
# Details: Crystal, Calculated from knudsen effusion weight loss
smiles,measurement,setting,value
[Br-].[Br-].[Pb+2] [lead(II) bromide],vapor or sublimation pressure,532.3 K,7e-06 ± 2e-06 kPa
same,vapor or sublimation pressure,533 K,8e-06 ± 2e-06 kPa
same,vapor or sublimation pressure,533.1 K,8e-06 ± 2e-06 kPa
same,vapor or sublimation pressure,553.2 K,3.6e-05 ± 9e-06 kPa
same,vapor or sublimation pressure,553.7 K,2.6e-05 ± 6e-06 kPa
same,vapor or sublimation pressure,553.9 K,2.7e-05 ± 7e-06 kPa
same,vapor or sublimation pressure,571.5 K,6.1e-05 ± 1.5e-05 kPa
same,vapor or sublimation pressure,572.5 K,7.8e-05 ± 1.9e-05 kPa
same,vapor or sublimation pressure,573.7 K,7.5e-05 ± 1.8e-05 kPa
same,vapor or sublimation pressure,590.8 K,0.000233 ± 5.7e-05 kPa
same,vapor or sublimation pressure,591.9 K,0.000178 ± 4.3e-05 kPa
same,vapor or sublimation pressure,592.6 K,0.0002 ± 4.9e-05 kPa
same,vapor or sublimation pressure,611.3 K,0.000418 ± 0.0001 kPa
same,vapor or sublimation pressure,611.5 K,0.000573 ± 0.00014 kPa
same,vapor or sublimation pressure,612.9 K,0.000512 ± 0.00013 kPa
same,vapor or sublimation pressure,632.7 K,0.000886 ± 0.00022 kPa
same,vapor or sublimation pressure,633.5 K,0.001153 ± 0.00029 kPa
same,vapor or sublimation pressure,633.9 K,0.001334 ± 0.00034 kPa

# Reference: the NIST ThermoML archive (doi:10.1016/j.tca.2015.10.014)
